Assay results as given in patent US12350265B2, “Pharmaceutical composition for treating acute myeloid leukemia, containing FLT3 inhibitor and chemotherapeutic agents” (Hanmi Pharm. Co., Ltd., priority 2019, dated 2025).

Tested on: MV-4-11 cell line
Assay: MV-4-11 cell line xenografted mouse model, tumor volume / tumor growth inhibition
Type: in vivo
Settings: nude mice xenografted with MV-4-11; Compound A 3 mg/kg/day orally once a day, days 1 to 21
Method: In a mouse model xenografted with the MV-4-11 cell line, comparison or combination efficacy tests were conducted of the FLT3 inhibitor 5-Chloro-N-(3-cyclopropyl-5-(((3R,5S)-3,5-dimethylpiperazine-1-yl)methyl)phenyl)-4-(6-methyl-1H-indole-3-yl)pyrimidin-2-amine (hereinafter compound A); 4-amino-1-[(2R,3S,4S,5R)-3,4-dihydroxy-5-(hydroxymethyl)oxolane-2-yl]pyrimidin-2-one (hereafter cytarabine); and ((8S,10S)-8-acetyl-10-[(2S,4S,5S,6S)-4-amino-5-hydroxy-6-methyl-oxane-2-yl]oxy-6,8,11-trihydroxy-1-methoxy-9,10-dihydro-7H-tetracene-5,12-dione (hereafter daunorubicin).
The MV-4-11 cell line was purchased from the American Type Culture Collection (ATCC). To construct a xenografted mouse model using this MV-4-11 cell line, 5-week-old female CAnN·Cg-Foxn1nu/Crljbgi mice (hereinafter, Nude mice) were purchased from Charles River Laboratories Japan, Inc.
The MV-4-11 cell line was inoculated subcutaneously in the flank with 5×10^6 cells/[…]/mouse and allowed to grow. Mice having a tumor volume of 100 to 300 mm^3 (length×width^2×0.5) were selected 1 day before administration, the average tumor volume in each group was divided into 4 groups (5 animals/group) so that the average tumor volume was almost the same, and each dose was administered for a total period of 21 days. […]

## Cc1ccc2c(-c3nc(Nc4cc(CN5C[C@@H](C)N[C@@H](C)C5)cc(C5CC5)c4)ncc3Cl)c[nH]c2c1 [compound A, 5-Chloro-N-(3-cyclopropyl-5-(((3R,5S)-3,5-dimethylpiperazine-1-yl)methyl)phenyl)-4-(6-methyl-1H-indole-3-yl)pyrimidin-2-amine]
  Tumor growth inhibition (TGI): 34.7%
